26 compounds from patent US8648066B2 (Exelixis, Inc., priority 2009, dated 2014) can be followed below.

Structures are written as SMILES. pIC50: −log10 of the molar value. Where only a bound is given, the exact number is not on record here.

The target in this test is mTOR/GbL/Raptor (mTORC1) (Homo sapiens, UniProt P42345). Briefly: mTOR/GbL/Raptor (mTORC1) ELISA assay. The conditions noted are these: phosphorylation of 4E-BP1; 0.2 nM mTORC1, 10 μM ATP; read-out: IC50 in this assay (mTORC1 ELISA). The class given is biochemical. The gist of the method:
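Human mTORC1 (0.2 nM) phosphorylated 50 nM His-tagged 4E-BP1 with 10 µM ATP in HEPES pH 7.2 containing 10 mM MnCl2, 120 min at ambient temperature. Substrate was captured on Ni-chelate plates; phospho-4E-BP1 was detected by primary antibody and HRP secondary with luminescence.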
For orientation: An ELISA detects its analyte on a solid surface through an enzyme-linked reagent.
For the compound `CN(C)C(=O)c1cc(-c2ccc3c(c2)CN(c2ncnc4c2CC(C)(C)CC4)CCO3)cnc1N` [Example 379, 2-amino-5-[4-(6,6-dimethyl-5,6,7,8-tetrahydroquinazolin-4-yl)-2,3,4,5-tetrahydro-1,4-benzoxazepin-7-yl]-N,N-dimethylpyridine-3-carboxamide], the negative-log IC50 (pIC50) is 6.60 to 7.30.
As for `CN(C)S(=O)(=O)c1cc(-c2ccc3c(c2)CN(c2ncnc4c2CC(C)(C)CC4)CCO3)cnc1N` [Example 380, 2-amino-5-[4-(6,6-dimethyl-5,6,7,8-tetrahydroquinazolin-4-yl)-2,3,4,5-tetrahydro-1,4-benzoxazepin-7-yl]-N,N-dimethylpyridine-3-sulfonamide], the pIC50 is 7.30 to 8.00.
To `CN1CCC(CNS(=O)(=O)c2cc(-c3ccc4c(c3)CN(c3ncnc5c3CC(C)(C)CC5)CCO4)cnc2N)CC1` [Example 381, 2-amino-5-[4-(6,6-dimethyl-5,6,7,8-tetrahydroquinazolin-4-yl)-2,3,4,5-tetrahydro-1,4-benzoxazepin-7-yl]-N-[(1-methylpiperidin-4-yl)methyl]pyridine-3-sulfonamide] belongs 6.00 to 6.60; to `CC1(C)CCc2ncnc(N3CCOc4ccc(-c5cnc(N)c(S(=O)(=O)NC[C@H]6CCCN6)c5)cc4C3)c2C1` [Example 382, 2-amino-5-[4-(6,6-dimethyl-5,6,7,8-tetrahydrquinazolin-4-yl)-2,3,4,5-tetrahydro-1,4-benzoxazepin-7-yl]-N-[(2R)-pyrrolidin-2-ylmethyl]pyridine-3-sulfonamide], 7.30 to 8.00.
`CC1(C)CCc2ncnc(N3CCOc4ccc(-c5cnc(N)c(S(=O)(=O)NC[C@@H]6CCCN6)c5)cc4C3)c2C1` [Example 383, 2-amino-5-[4-(6,6-dimethyl-5,6,7,8-tetrahydroquinazolin-4-yl)-2,3,4,5-tetrahydro-1,4-benzoxazepin-7-yl]-N-[(2S)-pyrrolidin-2-ylmethyl]pyridine-3-sulfonamide]: the negative logarithm of the IC50 (pIC50) was 6.60 to 7.30.
To `CC1(C)CCc2ncnc(N3CCOc4ccc(-c5cnc(N)c(S(=O)(=O)NC[C@H]6C[C@H]7CNC[C@H]7C6)c5)cc4C3)c2C1` [Example 384, 2-amino-5-[4-(6,6-dimethyl-5,6,7,8-tetrahydroquinazolin-4-yl)-2,3,4,5-tetrahydro-1,4-benzoxazepin-7-yl]-N-[(3aR,5r,6aS)-octahydrocyclopenta[c]pyrrol-5-ylmethyl]pyridine-3-sulfonamide] belongs 6.60 to 7.30; to `CN1CC[C@@H](NS(=O)(=O)c2cc(-c3ccc4c(c3)CN(c3ncnc5c3CC(C)(C)CC5)CCO4)cnc2N)C1` [Example 385, 2-amino-5-[4-(6,6-dimethyl-5,6,7,8-tetrahydroquinazolin-4-yl)-2,3,4,5-tetrahydro-1,4-benzoxazepin-7-yl]-N-[(3R)-1-methylpyrrolidin-3-yl]pyridine-3-sulfonamide], 6.60 to 7.30.
In the case of `CC1(C)CCc2ncnc(N3CCOc4ccc(-c5cnc(N)c(S(=O)(=O)NC[C@@H]6CCCNC6)c5)cc4C3)c2C1` [Example 386, 2-amino-5-[4-(6,6-dimethyl-5,6,7,8-tetrahydroquinazolin-4-yl)-2,3,4,5-tetrahydro-1,4-benzoxazepin-7-yl]-N-[(3R)-piperidin-3-ylmethyl]pyridine-3-sulfonamide] it was 6.00 to 6.60; in that of `CC1(C)CCc2ncnc(N3CCOc4ccc(-c5cnc(N)c(S(=O)(=O)N[C@@H]6CCNC6)c5)cc4C3)c2C1` [Example 387, 2-amino-5-[4-(6,6-dimethyl-5,6,7,8-tetrahydroquinazolin-4-yl)-2,3,4,5-tetrahydro-1,4-benzoxazepin-7-yl]-N-[(3R)-pyrrolidin-3-yl]pyridine-3-sulfonamide], at least 8.00.
To `CC1(C)CCc2ncnc(N3CCOc4ccc(-c5cnc(N)c(S(=O)(=O)NC[C@@H]6CCNC6)c5)cc4C3)c2C1` [Example 388, 2-amino-5-[4-(6,6-dimethyl-5,6,7,8-tetrahydroquinazolin-4-yl)-2,3,4,5-tetrahydro-1,4-benzoxazepin-7-yl]-N-[(3R)-pyrrolidin-3-ylmethyl]pyridine-3-sulfonamide] belongs 7.30 to 8.00; to `CC1(C)CCc2ncnc(N3CCOc4ccc(-c5cnc(N)c(S(=O)(=O)NC[C@H]6CCCNC6)c5)cc4C3)c2C1` [Example 389, 2-amino-5-[4-(6,6-dimethyl-5,6,7,8-tetrahydroquinazolin-4-yl)-2,3,4,5-tetrahydro-1,4-benzoxazepin-7-yl]-N-[(3S)-piperidin-3-ylmethyl]pyridine-3-sulfonamide], 7.30 to 8.00.
Regarding `CC1(C)CCc2ncnc(N3CCOc4ccc(-c5cnc(N)c(S(=O)(=O)N[C@H]6CCNC6)c5)cc4C3)c2C1` [Example 390], the pIC50 was 7.30 to 8.00.
In the case of `CC1(C)CCc2ncnc(N3CCOc4ccc(-c5cnc(N)c(S(=O)(=O)NC[C@H]6CCNC6)c5)cc4C3)c2C1` [Example 391, 2-amino-5-[4-(6,6-dimethyl-5,6,7,8-tetrahydroquinazolin-4-yl)-2,3,4,5-tetrahydro-1,4-benzoxazepin-7-yl]-N-[(3S)-pyrrolidin-3-ylmethyl]pyridine-3-sulfonamide] it was 7.30 to 8.00.
To `COCCNS(=O)(=O)c1cc(-c2ccc3c(c2)CN(c2ncnc4c2CC(C)(C)CC4)CCO3)cnc1N` [Example 392, 2-amino-5-[4-(6,6-dimethyl-5,6,7,8-tetrahydroquinazolin-4-yl)-2,3,4,5-tetrahydro-1,4-benzoxazepin-7-yl]-N-[2-(methyloxy)ethyl]pyridine-3-sulfonamide] belongs 6.60 to 7.30.
In the case of `CN1CCC[C@H](CNS(=O)(=O)c2cc(-c3ccc4c(c3)CN(c3ncnc5c3CC(C)(C)CC5)CCO4)cnc2N)C1` [Example 393, 2-amino-5-[4-(6,6-dimethyl-5,6,7,8-tetrahydroquinazolin-4-yl)-2,3,4,5-tetrahydro-1,4-benzoxazepin-7-yl]-N-{[(3S)-1-methylpiperidin-3-yl]methyl}pyridine-3-sulfonamide] it was 6.60 to 7.30; in that of `CN1CC[C@H](CNS(=O)(=O)c2cc(-c3ccc4c(c3)CN(c3ncnc5c3CC(C)(C)CC5)CCO4)cnc2N)C1` [Example 394, 2-amino-5-[4-(6,6-dimethyl-5,6,7,8-tetrahydroquinazolin-4-yl)-2,3,4,5-tetrahydro-1,4-benzoxazepin-7-yl]-N-{[(3S)-1-methylpyrrolidin-3-yl]methyl}pyridine-3-sulfonamide], 6.60 to 7.30; in that of `CCN(C)S(=O)(=O)c1cc(-c2ccc3c(c2)CN(c2ncnc4c2CC(C)(C)CC4)CCO3)cnc1N` [Example 395, 2-amino-5-[4-(6,6-dimethyl-5,6,7,8-tetrahydroquinazolin-4-yl)-2,3,4,5-tetrahydro-1,4-benzoxazepin-7-yl]-N-ethyl-N-methylpyridine-3-sulfonamide], 6.60 to 7.30.
For `CCNS(=O)(=O)c1cc(-c2ccc3c(c2)CN(c2ncnc4c2CC(C)(C)CC4)CCO3)cnc1N` [Example 396, 2-amino-5-[4-(6,6-dimethyl-5,6,7,8-tetrahydroquinazolin-4-yl)-2,3,4,5-tetrahydro-1,4-benzoxazepin-7-yl]-N-ethylpyridine-3-sulfonamide], the pIC50 was 7.30 to 8.00.
To `CNS(=O)(=O)c1cc(-c2ccc3c(c2)CN(c2ncnc4c2CC(C)(C)CC4)CCO3)cnc1N` [Example 397, 2-amino-5-[4-(6,6-dimethyl-5,6,7,8-tetrahydroquinazolin-4-yl)-2,3,4,5-tetrahydro-1,4-benzoxazepin-7-yl]-N-methylpyridine-3-sulfonamide] belongs at least 8.00.
To `CC1(C)CCc2ncnc(N3CCOc4ccc(-c5cnc(N)c(S(=O)(=O)NC6CCNCC6)c5)cc4C3)c2C1` [Example 398] belongs 6.60 to 7.30.
For the compound `CC1(C)CCc2ncnc(N3CCOc4ccc(-c5cnc(N)c(S(N)(=O)=O)c5)cc4C3)c2C1` [Example 399, 2-amino-5-[4-(6,6-dimethyl-5,6,7,8-tetrahydroquinazolin-4-yl)-2,3,4,5-tetrahydro-1,4-benzoxazepin-7-yl]pyridine-3-sulfonamide], the negative logarithm of the IC50 (pIC50) is at least 8.00.
On to `CC1(C)CCc2ncnc(N3CCOc4ccc(-c5cnc(N)c(S(=O)(=O)O)c5)cc4C3)c2C1` [Example 400, 2-amino-5-[4-(6,6-dimethyl-5,6,7,8-tetrahydrquinazolin-4-yl)-2,3,4,5-tetrahydro-1,4-benzoxazepin-7-yl]pyridine-3-sulfonic acid], for which the negative logarithm of the IC50 (pIC50) was 6.60 to 7.30.
For the compound `CNS(=O)(=O)c1cc(-c2ccc3c(c2)CN(c2ncnc4c2CC(C)(C)C=C4)CCO3)cnc1N` [Example 401, 2-amino-5-[4-(6,6-dimethyl-5,6-dihydroquinazolin-4-yl)-2,3,4,5-tetrahydro-1,4-benzoxazepin-7-yl]-N-methylpyridine-3-sulfonamide], the negative logarithm of the IC50 (pIC50) was at least 8.00.
To `CC1(C)CCc2ncnc(N3CCOc4ccc(-c5cnc(N)c(S(=O)(=O)NCC(O)CO)c5)cc4C3)c2C1` (centres unmarked) [Example 402, 2-amino-N-(2,3-dihydroxypropyl)-5-[4-(6,6-dimethyl-5,6,7,8-tetrahydroquinazolin-4-yl)-2,3,4,5-tetrahydro-1,4-benzoxazepin-7-yl]pyridine-3-sulfonamide] belongs at least 8.00; to `CC1(C)CCc2ncnc(N3CCOc4ccc(-c5cnc(N)c(S(=O)(=O)NC(C)(C)CN)c5)cc4C3)c2C1` [Example 403, 2-amino-N-(2-amino-1,1-dimethylethyl)-5-[4-(6,6-dimethyl-5,6,7,8-tetrahydroquinazolin-4-yl)-2,3,4,5-tetrahydro-1,4-benzoxazepin-7-yl]pyridine-3-sulfonamide], 7.30 to 8.00; to `CC1=Cc2ncnc(N3CCOc4ccc(-c5cnc(N)c(S(=O)(=O)NCC(C)(C)N)c5)cc4C3)c2CC1(C)C` [Example 405, 2-amino-N-(2-amino-2-methylpropyl)-5-[4-(6,6,7-trimethyl-5,6-dihydroquinazolin-4-yl)-2,3,4,5-tetrahydro-1,4-benzoxazepin-7-yl]pyridine-3-sulfonamide], at least 8.00.

As a reminder, the pIC50 is the IC50 on a negative log10 scale, so that one unit is a factor of ten.
